Experimental data as given in patent publication US20040142981A1, “Antibacterial benzoic acid derivatives” (priority 2002, published 2004).
In brackets after ≈: the same amount, converted by molar mass.

Test system: not given
Assay: not given
Details: not given
With `O=C(Nc1ccc(Br)cc1-c1noc(=O)[nH]1)c1cccc(Oc2ccccc2)c1` [Example 16, N-[4-Bromo-2-(5-oxo-4,5-dihydro-1,2,4-oxadiazol-3-yl)phenyl]-3-phenoxybenzamide] the melting point was 185 to 187 °C.
For `O=C(Nc1ccc(Br)cc1-c1noc(=O)[nH]1)c1cccc(S(=O)(=O)N2CCOCC2)c1` [Example 19, N-[4-bromo-2-(5-oxo-4,5-dihydro-1,2,4-oxadiazol-3-yl)phenyl]-3-(morpholin-4-ylsulfonyl)benzamide], the melting point was 220 to 223 °C.
Work on `N#Cc1ccc(NC(=O)c2ccc(S(=O)(=O)N3CCc4cc(Cl)ccc43)cc2)c(-c2n[nH]c(=S)o2)c1` [Example 23, 4-[(5-chloro-2,3-dihydro-1H-indol-1-yl)sulfonyl]-N-[4-cyano-2-(5-thioxo-4,5-dihydro-1,3,4-oxadiazol-2-yl)phenyl]benzamide] yielded a melting point of 225 to 229 °C.

Test system: SAUR 9218
Assay: MIC by standard agar dilution method
Assay type: cell-based
Details: Mueller Hinton agar, incubated overnight at 35° C., lowest concentration that inhibits visible growth
Experimental: MIC Test Method The in vitro MICs of test compounds were determined by a standard agar dilution method. A stock drug solution of each analog was prepared in the preferred solvent, usually DMSO:H2O (1:3). Serial 2-fold dilutions of each sample are made using 1.0 ml aliquots of sterile distilled water. To each 1.0 ml aliquot of drug was added 9 ml of molten Mueller Hinton agar medium. The drug-supplemented agar was mixed, poured into 15×100 mm petri dishes, and allowed to solidify and dry prior to inoculation. Vials of each of the test organisms are maintained frozen in the vapor phase of a liquid nitrogen freezer. Test cultures are grown overnight at 35° C. on the medium appropriate for the organism. Colonies are harvested with a sterile swab, and cell suspensions are prepared in Trypticase Soy broth (TSB) to equal the turbidity of a 0.5 McFarland standard. A 1:20 dilution of each suspension was made in TSB. The plates containing the drug supplemented agar are inoculated with a 0.001 ml drop of the cell suspension using a Steers replicator, yielding approximately 10^4 to 10^5 cells per spot. The plates are incubated overnight at 35° C. Following incubation the Minimum Inhibitory Concentration (MIC μg/ml), the lowest concentration of drug that inhibits visible growth of the organism, was read and recorded.
With `O=C(Nc1ccc(Br)cc1-c1noc(=O)[nH]1)c1cccc(OCc2ccccc2)c1` [Example 10, 3-(Benzyloxy)-N-[4-bromo-2-(5-oxo-4,5-dihydro-1,2,4-oxadiazol-3-yl)phenyl]benzamide] the MIC was 8 µg/mL (≈ 17.2 µM).
Work on `O=C(Nc1ccc(Br)cc1C1=Nc2ccccc2S(=O)(=O)N1)c1cccc(S(=O)(=O)N2CCOCC2)c1` [Example 11, N-[4-Bromo-2-(1,1-dioxido-2H-1,2,4-benzothiadiazin-3-yl)phenyl]-3-(morpholin-4-ylsulfonyl)benzamide] yielded an MIC of 16 µg/mL (≈ 26.4 µM).
Work on `CN(c1ccc(Cl)cc1)S(=O)(=O)c1cccc(C(=O)Nc2ccc(Br)cc2-c2noc(=O)[nH]2)c1` [Example 9, N-[4-Bromo-2-(5-oxo-4,5-dihydro-1,2,4-oxadiazol-3-yl)phenyl]-3-{[(4-chlorophenyl)(methyl)amino]sulfonyl}benzamide] yielded an MIC of 16 µg/mL (≈ 28.4 µM).
In the case of `O=C(Nc1ccc(Br)cc1-c1noc(=O)[nH]1)c1ccc(S(=O)(=O)N2CCc3ccccc32)cc1` [Example 7, N-[4-Bromo-2-(5-oxo-4,5-dihydro-1,2,4-oxadiazol-3-yl)phenyl]-4-(2,3-dihydro-1H-indol-1-ylsulfonyl)benzamide], the MIC is reported as 16 µg/mL (≈ 29.6 µM).
Molecule `O=C(Nc1ccc(Br)cc1-c1noc(=O)[nH]1)c1cccc(Oc2ccccc2)c1` [Example 16, N-[4-Bromo-2-(5-oxo-4,5-dihydro-1,2,4-oxadiazol-3-yl)phenyl]-3-phenoxybenzamide] has an MIC of 16 µg/mL (≈ 35.4 µM).
Work on `N#Cc1ccc(NC(=O)c2cccc(S(=O)(=O)N3CCc4cc(Cl)ccc43)c2)c(C(=O)Nc2nccs2)c1` [Example 26, 2-({3-[(5-Chloro-2,3-dihydro-1H-indol-1-yl)sulfonyl]benzoyl}amino)-5-cyano-N-(1,3-thiazol-2-yl)benzamide] yielded an MIC of 8 µg/mL (≈ 14.2 µM).
Molecule `CC(C)Sc1ccc(C(=O)Nc2ccc(Br)cc2-c2noc(=O)[nH]2)cn1` [Example 31, N-[4-bromo-2-(5-oxo-4,5-dihydro-1,2,4-oxadiazol-3-yl)phenyl]-6-(isopropylthio)nicotinamide] has an MIC of 8 µg/mL (≈ 18.4 µM).
In the case of `CN(c1ccc(Cl)cc1)S(=O)(=O)c1ccc(C(=O)Nc2ccc(Br)cc2-c2n[nH]c(=O)o2)cc1` [N-[4-bromo-2-(5-oxo-4,5-dihydro-1,3,4-oxadiazol-2-yl)phenyl]-4-{[4-chloro(methyl)anilino]sulfonyl}benzamide], the MIC is reported as 2 µg/mL (≈ 3.55 µM).
`CN(c1ccc(Cl)cc1)S(=O)(=O)c1ccc(C(=O)Nc2ccc(Br)cc2-c2nnn[nH]2)cc1` [Example 5, N-[4-Bromo-2-(1H-tetraazol-5-yl)phenyl]-4-{[(4-chlorophenyl)(methyl)amino]sulfonyl}benzamide] showed an MIC of 16 µg/mL (≈ 29.2 µM).
In the case of `CN(c1ccc(Cl)cc1)S(=O)(=O)c1csc(C(=O)Nc2ccc(Br)cc2-c2nnn[nH]2)c1` [Example 28, N-[4-Bromo-2-(1H-tetraazol-5-yl)phenyl]-4-{[(4-chlorophenyl)(methyl)amino]sulfonyl}thiophene-2-carboxamide], the MIC is reported as 16 µg/mL (≈ 28.9 µM).
In the case of `O=C(Nc1ccc(Br)cc1-c1noc(=O)[nH]1)c1cccc(S(=O)(=O)N2CCOCC2)c1` [Example 19, N-[4-bromo-2-(5-oxo-4,5-dihydro-1,2,4-oxadiazol-3-yl)phenyl]-3-(morpholin-4-ylsulfonyl)benzamide], the MIC is reported as 128 µg/mL (≈ 251 µM).
Work on `N#Cc1ccc(NC(=O)c2ccc(S(=O)(=O)N3CCc4cc(Cl)ccc43)cc2)c(-c2n[nH]c(=S)o2)c1` [Example 23, 4-[(5-chloro-2,3-dihydro-1H-indol-1-yl)sulfonyl]-N-[4-cyano-2-(5-thioxo-4,5-dihydro-1,3,4-oxadiazol-2-yl)phenyl]benzamide] yielded an MIC of 8 µg/mL (≈ 14.9 µM).
`CN(c1ccc(Cl)cc1)S(=O)(=O)c1ccc(C(=O)Nc2ccc(Br)cc2-c2n[nH]c(=S)o2)cc1` [Example 8, N-[4-Bromo-2-(5-thioxo-4,5-dihydro-1,3,4-oxadiazol-2-yl)phenyl]-4-{[(4-chlorophenyl)(methyl)amino]sulfonyl}benzamide] showed an MIC of 4 µg/mL (≈ 6.9 µM).
In the case of `O=C(Nc1ccc(Br)cc1-c1nnn[nH]1)c1ccc(S(=O)(=O)N2CCc3cc(Cl)ccc32)cc1` [N-[4-bromo-2-(1H-1,2,3,4-tetraazol-5-yl)phenyl]-4-[(5-chloro-2,3-dihydro-1H-indol-1-yl)sulfonyl]benzamide], the MIC is reported as 4 µg/mL (≈ 7.14 µM).
With `O=C(Nc1ccc(I)cc1-c1nnn[nH]1)c1cc2cccc(S(=O)(=O)c3ccccc3)c2[nH]1` [Example 24, N-[4-iodo-2-(1H-tetraazol-5-yl)phenyl]-7-(phenylsulfonyl)-1H-indole-2-carboxamide] the MIC was 0.5 µg/mL (≈ 0.877 µM).
For `CC(C)Oc1cccc(C(=O)Nc2ccc(Br)cc2-c2noc(=O)[nH]2)c1` [Example 15, N-[4-Bromo-2-(5-oxo-4,5-dihydro-1,2,4-oxadiazol-3-yl)phenyl]-3-isopropoxybenzamide], the MIC was 32 µg/mL (≈ 76.5 µM).
Work on `CN(c1ccc(Cl)cc1)S(=O)(=O)c1ccc(C(=O)Nc2ccc(Br)cc2NS(=O)(=O)C(F)(F)F)cc1` yielded an MIC of 32 µg/mL (≈ 51 µM).
In the case of `O=C(Nc1ccc(Br)cc1-c1nc2ccccc2c(=O)[nH]1)c1cccc(S(=O)(=O)N2CCc3cc(Cl)ccc32)c1` [Example 12, N-[4-Bromo-2-(4-oxo-3,4-dihydroquinazolin-2-yl)phenyl]-3-[(5-chloro-2,3-dihydro-1H-indol-1-yl)sulfonyl]benzamide], the MIC is reported as 4 µg/mL (≈ 6.29 µM).
`Cc1ccc(S(=O)(=O)NC(=O)c2cc(Br)ccc2NC(=O)c2cccc(S(=O)(=O)N(C)c3ccc(Cl)cc3)c2)cc1` [Example 4, N-[4-Bromo-2-({[(4-methylphenyl)sulfonyl]amino}carbonyl)phenyl]-3-{[(4-chlorophenyl)(methyl)amino]sulfonyl}benzamide] showed an MIC of 8 µg/mL (≈ 11.8 µM).
Molecule `O=C(Nc1ccc(Br)cc1-c1nc2ccccc2c(=O)[nH]1)c1cccc(S(=O)(=O)N2CCOCC2)c1` [Example 13, N-[4-Bromo-2-(4-oxo-3,4-dihydroquinazolin-2-yl)phenyl]-3-(morpholin-4-ylsulfonyl)benzamide] has an MIC of 4 µg/mL (≈ 7.02 µM).
Work on `O=C(Nc1ccc(Br)cc1-c1noc(=O)[nH]1)c1ccc(S(=O)(=O)N2CCc3cc(Cl)ccc32)cc1` [N-[4-bromo-2-(5-oxo-4,5-dihydro-1,2,4-oxadiazol-3-yl)phenyl]-4-[(5-chloro-2,3-dihydro-1H-indol-1-yl)sulfonyl]benzamide] yielded an MIC of 8 µg/mL (≈ 13.9 µM).
`O=C(Nc1ccc(Br)cc1C1=Nc2ccccc2S(=O)(=O)N1)c1cccc(S(=O)(=O)N2CCc3cc(Cl)ccc32)c1` [Example 14, N-[4-Bromo-2-(1,1-dioxido-2H-1,2,4-benzothiadiazin-3-yl)phenyl]-3-[(5-chloro-2,3-dihydro-1H-indol-1-yl)sulfonyl]benzamide] showed an MIC of 64 µg/mL (≈ 95.2 µM).
`CN(c1ccc(Cl)cc1)S(=O)(=O)c1cccc(C(=O)Nc2ccc(Br)cc2C(=O)NS(C)(=O)=O)c1` [Example 3, N-(4-Bromo-2-{[(methylsulfonyl)amino]carbonyl}phenyl)-3-{[(4-chlorophenyl)(methyl)amino]sulfonyl}benzamide] showed an MIC of 2 µg/mL (≈ 3.33 µM).
For `CN(c1ccc(Cl)cc1)S(=O)(=O)c1ccc(C(=O)Nc2ccc(Br)cc2-c2noc(=O)[nH]2)cc1` [Example 6, N-[4-Bromo-2-(5-oxo-4,5-dihydro-1,2,4-oxadiazol-3-yl)phenyl]-4-{[(4-chlorophenyl)(methyl)amino]sulfonyl}benzamide], the MIC was 16 µg/mL (≈ 28.4 µM).
`O=C(Nc1ccc(Br)cc1-c1noc(=O)[nH]1)c1cccc(SCc2ccccc2)c1` [Example 2, 3-(Benzylthio)-N-[4-bromo-2-(5-oxo-4,5-dihydro-1,2,4-oxadiazol-3-yl)phenyl]benzamide] showed an MIC of 8 µg/mL (≈ 16.6 µM).
`O=C(Nc1ccc(Br)cc1-c1nnn[nH]1)c1ccc(S(=O)(=O)N2CCc3ccccc32)cc1` [N-[4-bromo-2-(1H-1,2,3,4-tetraazol-5-yl)phenyl]-4-(2,3-dihydro-1H-indol-1-ylsulfonyl)benzamide] gave an MIC of 2 µg/mL (≈ 3.81 µM).
Work on `CN(c1ccc(Cl)cc1)S(=O)(=O)c1coc(C(=O)Nc2ccc(Br)cc2-c2nnn[nH]2)c1` [Example 27] yielded an MIC of 16 µg/mL (≈ 29.8 µM).
`O=C(Nc1ccc(Br)cc1-c1noc(=O)[nH]1)c1cccc(S(=O)(=O)N2CCc3cc(Cl)ccc32)c1` [Example 1, N-[4-Bromo-2-(5-oxo-4,5-dihydro-1,2,4-oxadiazol-3-yl)phenyl]-3-[(5-chloro-2,3-dihydro-1H-indol-1-yl)sulfonyl]benzamide] gave an MIC of 4 µg/mL (≈ 6.95 µM).
In the case of `O=C(Nc1ccc(Br)cc1-c1n[nH]c(=O)o1)c1ccc(S(=O)(=O)N2CCc3cc(Cl)ccc32)cc1` [N-[4-bromo-2-(5-oxo-4,5-dihydro-1,3,4-oxadiazol-2-yl)phenyl]-4-[(5-chloro-2,3-dihydro-1H-indol-1-yl)sulfonyl]benzamide], the MIC is reported as greater than 128 µg/mL.
For `CN(c1ccc(Cl)cc1)S(=O)(=O)c1ccc(C(=O)Nc2ccc(Br)cc2-c2nnn[nH]2)s1` [Example 29, N-[4-Bromo-2-(1H-tetraazol-5-yl)phenyl]-5-{[(4-chlorophenyl)(methyl)amino]sulfonyl}thiophene-2-carboxamide], the MIC was 8 µg/mL (≈ 14.4 µM).
With `CN(c1ccc(Cl)cc1)S(=O)(=O)c1ccc(C(=O)Nc2ccc(Br)cc2-c2noc(=S)[nH]2)cc1` [N-[4-bromo-2-(5-thioxo-4,5-dihydro-1,2,4-oxadiazol-3-yl)phenyl]-4-{[4-chloro(methyl)anilino]sulfonyl}benzamide] the MIC was 16 µg/mL (≈ 27.6 µM).
For `COc1cccc(C(=O)Nc2ccc(Br)cc2-c2nnn[nH]2)c1` [N-[4-bromo-2-(1H-tetraazol-5-yl)phenyl]-3-methoxybenzamide], the MIC was 64 µg/mL (≈ 171 µM).
